The structures appear in SMILES notation.

Assay type in all cases: cell-based, human
In assay [1] the test system is Gal4DBD/HIF-1α 727-826 CAD chimera. In words: Gal4 response element luciferase reporter gene assay, GalDBD/HIF-1α CAD chimera. The settings on record: cells treated 16 h at normoxia. On the technique in general: Reporter assays use an easily measured gene product as a stand-in for the process of interest.
Assay [2] relates to Gal4DBD/HIF-2α 774-874 CAD chimera. Nature of the assay: Gal4 response element luciferase reporter gene assay, GalDBD/HIF-2α CAD chimera. The note with it: cells treated 16 h at normoxia. An excerpt: FIG. 3. Expression vectors for either the Gal4 DNA Binding Domain or the indicated GalDBD HIF-1α and HIF-2α CAD chimeric proteins were contransfected with a Gal4 response element containing luciferase reporter gene and an internal control renilla luciferase reporter gene. […] Data are the average of three transfections±standard deviation.
FIG. 6. […] A) Sequence comparisons show conservation of the critical Asn between HIF-1α and HIF-2α across species. […] HEK293T cells were transfected according to the protocol of FIG. 3A and data represent the average of triplicate transfections +/standard deviation. (C). The wild type and mutant Ga14DBD/HIF chimeras used in A) are expressed at the same levels during transient transfection. Whole cell extracts of control or transfected cells were separated by SDS-PAGE and proteins detected by immunoblotting with antibodies directed against the C-terminus of HIF-1α (C) or HIF2α.
Human embryonic kidney 293T and rat pheochromocytoma PC12 cells were maintained in Dulbecco's Modified Eagles Medium (DMEM) supplemented with 10% foetal calf serum. For transient transfections, cells were plated onto 24 well plates at a density of 2.0×10^4 cells/well. […] After 16 hrs treatment, cells were harvested, Iysed and extracts analysed using the Dual Luciferase Reporter Assay Kit as outlined by the manufacturer (Promega). […]

The test system of assay [3] is HIF-2α CAD Asn851 hydroxylation. In words: Mass spectrometry of HIF-2α CAD purified from stable 293T cells (hydroxylation of Asn851). The note with it: DP 100 μM, 3 h; MALDI-TOF. The procedure:
FIG. 5. A) Mass spectrometry of the HIF-2α CAD purified from cells incubated in normoxia or subjected to hypoxia (<1% O2, 3 h) or DP (100 μM, 3 h) treatments. A & B) Magnified views of the MALDI-TOF spectra corresponding to hydroxylation (+16 Da) of the peptide […] [SED ID NO. 1], which appears in the normoxic but not hypoxic or DP treated samples. […] Fragments were also observed for the modified sequence at m/z values of +16 Da higher than Asn851-containing fragments of the unmodified sequence. The boundary of the coincident and +16 Da fragment ions is indicated by the symbol N+ on the fragment ion spectrum of the modified sequence.
Samples for MS analysis were isolated from a 293T stable cell line that expressed HIF-2α774-874. After normoxic culture or treatment with hypoxia or DP as specified, cells were washed once with PBS, then lysed with binding buffer (100 mM Na-Phosphate pH8.0, 8M Urea, 0.1% NP40, 0.15M NaCl2, 5 mM imidazole, 1 mM βMe, 0.05 mM Na3VO4, 0.1 mM NaF, 0.5 mM β-Glycerophosphate, protease inhibitors). […]
Tryptic digests were analyzed using a Bruker Reflex MALDI-TOF-MS operated in the positive ion reflector mode. MALDI-TOF-MS data were acquired and analyzed using the Bruker XMass suite of software (Lopaticki et al., 1998; Pitt et al., 2000; Gorman et al., 1997). […]

In the next assay the test system is HIF-2α CAD. Nature of the assay: Immunoblot of HIF-2α CAD protein expression in stable transfected HEK 293T cells. The settings on record: treatment 3 h, anti-myc immunoblot. An excerpt: FIG. 4. A) Schematic showing domains of HIF-2α and the construct containing the CAD region fused to a 6xHis tag/myc epitope which was used to generate a stable expressing cell line. B) Protein expression of the HIF-2α CAD is not increased by hypoxia or DP treatment. […] The 293T control lane contains extract from cells stably transfected with blank expression vector. C) Sypro-Ruby (Bio-Rad) stained SDSPAGE gel showing an example of HIF-2α CAD purified from stable transfected cells. Extracts from non transfected cells subjected to the same purification procedure lack the HIF-2α CAD band.The higher molecular weight contaminant that is co-purified by the procedure was identified as 60S ribosomal protein L27A by mass spectrometry.
Isolated cell pellets were lysed in whole cell extract (WCE) buffer (10 mM Tris pH7.9, 0.42M NaCl2, 0.5% NP40, 25% Glycerol, 0.2 mM EDTA, 1.5 mM MgCl2, 1 mM DTT, protease inhibitors) for 10 min at 4° C. Lysed extracts were then clarified by centrifugation at 12,000 g for 15 min. The protein concentration of clarified lysates was determined using the Bradford assay (Biorad). Protein samples were then resolved on 12.5% Tris-Tricine gels. For the HIF-2α774-874 stable line, 10 μg of WCE was analysed by immunoblotting with the anti-myc 9E10 monoclonal antibody. […]

For the compound `COC(=O)CNC(=O)C(=O)OC` [DMOG, dimethyl-oxalylglycine], the “activity of the Gal4DBD/HIF-1α CAD chimera on treatment of cells” value in assay [1] was “activation of the Gal4DBD/HIF-1α and Gal4DBD/HIF-2α CAD chimeras to a similar extent as that seen during treatment with hypoxia”. In assay [2], the “activity of the Gal4DBD/HIF-2α CAD chimera on treatment of cells” value was “activation of the Gal4DBD/HIF-1α and Gal4DBD/HIF-2α CAD chimeras to a similar extent as that seen during treatment with hypoxia”.

In the case of `c1ccc(-c2ccccn2)nc1` [DP, 2,2′-dipyridyl], the “activity of the Gal4DBD/HIF-2α CAD chimera on treatment of cells” value in assay [2] is recorded as “induces activity of the CADs”. The “+16 Da (hydroxylated) form of peptide 846-YDCEVNVPVPGSSTLLQGR-864” value in assay [3] was “complete lack of the +16 mass increase”. Also, the “protein expression of the HIF-2α CAD” value with HIF-2α CAD is reported as “not increased”.

The values are drawn from US7435555B2, “Asparagine hydroxylation of the CAD domain of a HIF protein” (Adelaide Research and Innovation Pty Ltd., priority 2001, dated 2008).
